Measurements published in US9637472B2, “Substituted 6,5-fused bicyclic heteroaryl compounds” (Epizyme, Inc., priority 2011, dated 2017).

Target: EZH2 (Homo sapiens (Human), UniProt Q15910)
Assay: PRC2 enzyme assay on peptide substrates
Assay type: biochemical
Conditions: PRC2 enzyme assays on peptide substrates; 4 nM enzyme, 30 min preincubation at 25° C.; read-out: EZH2 IC50

Sequence of EZH2 (Q15910 other isoform, or with tags, fused parts or gaps): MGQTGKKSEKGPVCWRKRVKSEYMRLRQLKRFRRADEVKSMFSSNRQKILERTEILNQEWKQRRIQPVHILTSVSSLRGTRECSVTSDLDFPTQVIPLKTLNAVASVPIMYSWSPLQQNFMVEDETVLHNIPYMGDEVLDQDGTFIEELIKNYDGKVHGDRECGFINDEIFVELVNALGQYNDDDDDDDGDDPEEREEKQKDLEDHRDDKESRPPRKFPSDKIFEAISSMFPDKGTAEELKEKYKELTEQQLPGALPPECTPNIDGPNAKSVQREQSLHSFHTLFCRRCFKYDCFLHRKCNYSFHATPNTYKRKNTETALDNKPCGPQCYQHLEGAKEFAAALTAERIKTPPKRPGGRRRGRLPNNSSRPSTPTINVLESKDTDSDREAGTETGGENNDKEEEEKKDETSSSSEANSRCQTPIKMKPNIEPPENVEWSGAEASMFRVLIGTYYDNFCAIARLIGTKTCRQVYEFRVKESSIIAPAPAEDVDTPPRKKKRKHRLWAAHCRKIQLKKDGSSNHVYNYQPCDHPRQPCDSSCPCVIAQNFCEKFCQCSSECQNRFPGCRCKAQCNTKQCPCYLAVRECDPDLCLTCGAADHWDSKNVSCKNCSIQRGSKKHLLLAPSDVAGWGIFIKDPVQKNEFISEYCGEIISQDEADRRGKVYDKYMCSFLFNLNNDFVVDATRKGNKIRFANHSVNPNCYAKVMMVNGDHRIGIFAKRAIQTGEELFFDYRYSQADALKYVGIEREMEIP
Sequence of EZH2 (O75530 whole entry partner): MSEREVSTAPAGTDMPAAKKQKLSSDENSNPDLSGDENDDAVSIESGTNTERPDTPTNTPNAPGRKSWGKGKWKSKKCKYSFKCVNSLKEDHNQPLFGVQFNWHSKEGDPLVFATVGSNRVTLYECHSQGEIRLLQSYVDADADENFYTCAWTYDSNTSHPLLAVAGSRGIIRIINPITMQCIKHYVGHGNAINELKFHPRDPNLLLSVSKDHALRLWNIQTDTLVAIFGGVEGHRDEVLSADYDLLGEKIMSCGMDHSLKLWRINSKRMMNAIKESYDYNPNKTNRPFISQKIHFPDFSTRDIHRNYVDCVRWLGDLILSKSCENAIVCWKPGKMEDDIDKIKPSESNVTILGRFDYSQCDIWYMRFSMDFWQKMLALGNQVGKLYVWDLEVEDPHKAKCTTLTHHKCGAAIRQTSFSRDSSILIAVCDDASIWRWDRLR
Sequence of EZH2 (Q15022 whole entry partner): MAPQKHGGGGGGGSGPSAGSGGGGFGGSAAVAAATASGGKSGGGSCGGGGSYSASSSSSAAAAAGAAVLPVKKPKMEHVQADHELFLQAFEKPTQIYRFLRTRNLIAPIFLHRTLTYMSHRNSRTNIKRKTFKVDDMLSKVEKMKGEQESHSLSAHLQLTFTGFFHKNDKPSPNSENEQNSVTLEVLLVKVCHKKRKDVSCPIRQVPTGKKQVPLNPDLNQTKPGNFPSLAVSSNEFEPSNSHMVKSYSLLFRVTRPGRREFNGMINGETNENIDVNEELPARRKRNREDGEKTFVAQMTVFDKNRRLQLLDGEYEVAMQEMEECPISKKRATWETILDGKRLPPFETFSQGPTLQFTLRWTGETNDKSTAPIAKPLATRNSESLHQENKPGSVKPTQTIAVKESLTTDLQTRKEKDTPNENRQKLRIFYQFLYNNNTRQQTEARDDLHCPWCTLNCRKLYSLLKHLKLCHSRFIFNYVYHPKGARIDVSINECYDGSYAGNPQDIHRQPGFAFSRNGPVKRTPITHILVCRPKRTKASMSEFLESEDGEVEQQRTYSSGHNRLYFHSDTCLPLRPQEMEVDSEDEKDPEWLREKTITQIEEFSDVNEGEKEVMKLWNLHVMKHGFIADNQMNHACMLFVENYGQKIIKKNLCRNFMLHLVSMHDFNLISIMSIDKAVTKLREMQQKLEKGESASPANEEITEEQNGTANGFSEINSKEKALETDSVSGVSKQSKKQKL
Sequence of EZH2 (Q09028 whole entry partner): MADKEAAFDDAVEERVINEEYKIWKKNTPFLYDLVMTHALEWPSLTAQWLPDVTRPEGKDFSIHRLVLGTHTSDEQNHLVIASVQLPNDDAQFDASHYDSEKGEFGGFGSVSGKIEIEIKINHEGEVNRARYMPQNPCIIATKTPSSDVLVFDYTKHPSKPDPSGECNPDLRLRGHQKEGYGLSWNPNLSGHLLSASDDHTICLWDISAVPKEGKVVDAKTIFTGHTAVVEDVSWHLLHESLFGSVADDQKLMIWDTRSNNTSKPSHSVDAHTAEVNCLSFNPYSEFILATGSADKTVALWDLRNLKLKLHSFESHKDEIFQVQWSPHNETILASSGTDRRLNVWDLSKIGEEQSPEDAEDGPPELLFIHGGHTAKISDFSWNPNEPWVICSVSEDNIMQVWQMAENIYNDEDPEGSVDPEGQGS

Compound | IC50 [nM]
Cc1cc(C)c(CNC(=O)c2cc(N3CCC(N4CCOCC4)CC3)nc3c2cnn3C(C)C)c(=O)[nH]1 [Compound B-87] | 1000 to 3000
Cc1cc(C)c(CNC(=O)c2cc(-c3ccc(COCCCN(C)C)cc3)cc3c2cnn3C2CCCC2)c(=O)[nH]1 [Compound C-4, 1-cyclopentyl-N-((4,6-dimethyl-2-oxo-1,2-dihydropyridin-3-yl)methyl)-6-(4-((3-(dimethylamino)propoxy)methyl)phenyl)-1H-indazole-4-carboxamide] | < 300
Cc1cc(C)c(CNC(=O)c2cc(-c3cccc(CN(C)CCN4CCCC4)c3)cc3c2cnn3C(C)C)c(=O)[nH]1 [Compound A-41] | 300 to 1000
CC(=O)N1CC=C(c2cc(C(=O)NCc3c(C)cc(C)[nH]c3=O)c3cnn(C4CCCC4)c3c2)CC1 [Compound D-4, 6-(1-acetyl-1,2,3,6-tetrahydropyridin-4-yl)-1-cyclopentyl-N-((4,6-dimethyl-2-oxo-1,2-dihydropyridin-3-yl)methyl)-1H-indazole-4-carboxamide] | < 300
Cc1cc(C)c(CNC(=O)c2cc(C(C)C)cc3c2cnn3C2CCCC2)c(=O)[nH]1 [Compound D-20, 1-cyclopentyl-N-((4,6-dimethyl-2-oxo-1,2-dihydropyridin-3-yl)methyl)-6-isopropyl-1H-indazole-4-carboxamide] | 300 to 1000
Cc1cc(C)c(CNC(=O)c2cc(C3=CC(C)(C)NC(C)(C)C3)nc3c2cnn3C2CCCCC2)c(=O)[nH]1 [Compound B-16, 1-cyclohexyl-N-((4,6-dimethyl-2-oxo-1,2-dihydropyridin-3-yl)methyl)-6-(2,2,6,6-tetramethyl-1,2,3,6-tetrahydropyridin-4-yl)-1H-pyrazolo[3,4-b]pyridine-4-carboxamide] | < 300
Cc1cc(C)c(CNC(=O)c2cc(Br)cc3c2cnn3C2CCN(Cc3ccccc3)CC2)c(=O)[nH]1 [Compound D-15, 1-(1-benzylpiperidin-4-yl)-6-bromo-N-((4,6-dimethyl-2-oxo-1,2-dihydropyridin-3-yl)methyl)-1H-indazole-4-carboxamide] | 300 to 1000
Cc1cc(C)c(CNC(=O)c2cc(N3CCC(N4CCN(S(C)(=O)=O)CC4)CC3)nc3c2cnn3C(C)C)c(=O)[nH]1 [Compound B-101] | 1000 to 3000
Cc1cc(C)c(CNC(=O)c2cc(-c3cccc(CN)c3)nc3c2cnn3C(C)C)c(=O)[nH]1 [Compound A-32] | 300 to 1000
Cc1cc(CN(C)CCN)c(CNC(=O)c2cccc3c2cnn3C2CCCC2)c(=O)[nH]1 [Compound D-76] | 1000 to 3000
Cc1cc(C)c(CNC(=O)c2ccnc3c2cnn3C(C)C)c(=O)[nH]1 [Compound B-127] | 3000 to 10000
Cc1cc(C)c(CNC(=O)c2cc(C3=CCN(C(=O)C4CCCNC4)CC3)nc3c2cnn3C(C)C)c(=O)[nH]1 (centres unmarked) [Compound B-28, N-((4,6-dimethyl-2-oxo-1,2-dihydropyridin-3-yl)methyl)-1-isopropyl-6-(1-(piperidine-3-carbonyl)-1,2,3,6-tetrahydropyridin-4-yl)-1H-pyrazolo[3,4-b]pyridine-4-carboxamide] | < 300
Cc1cc(C)c(CNC(=O)c2cc(-c3ccc(CN(C)CCN)cc3)nc3c2cnn3C(C)C)c(=O)[nH]1 [Compound A-33] | 300 to 1000
Cc1cc(C)c(CNC(=O)c2cc(-c3ccnc(N4CCNCC4)c3)nc3c2cnn3C(C)C)c(=O)[nH]1 [Compound A-37] | 300 to 1000
Cc1cc(C)c(CNC(=O)c2cc(C3=CC(C)(C)NC(C)(C)C3)nc3c2cnn3C2CCC2)c(=O)[nH]1 [Compound B-14, 1-cyclobutyl-N-((4,6-dimethyl-2-oxo-1,2-dihydropyridin-3-yl)methyl)-6-(2,2,6,6-tetramethyl-1,2,3,6-tetrahydropyridin-4-yl)-1H-pyrazolo[3,4-b]pyridine-4-carboxamide] | 300 to 1000
Cc1cc(C)c(CNC(=O)c2cc(C3=CCN(C4CCN(S(C)(=O)=O)CC4)CC3)nc3c2cnn3C(C)C)c(=O)[nH]1 [Compound B-40] | 300 to 1000
Cc1cc(C)c(CNC(=O)c2cc(C3=CC(C)(C)NC(C)(C)C3)nc3c2cnn3Cc2ccccc2)c(=O)[nH]1 [Compound B-151] | 10000 to 50000
Cc1cc(C)c(CNC(=O)c2cc(N3CCC(N)CC3)nc3c2cnn3C(C)C)c(=O)[nH]1 [Compound B-110] | 1000 to 3000
Cc1cc(C)c(CNC(=O)c2cc(OC3CCN(C)CC3)nc3c2cnn3C(C)C)c(=O)[nH]1 [Compound B-6, N-((4,6-dimethyl-2-oxo-1,2-dihydropyridin-3-yl)methyl)-1-isopropyl-6-((1-methylpiperidin-4-yl)oxy)-1H-pyrazolo[3,4-b]pyridine-4-carboxamide] | 300 to 1000
Cc1cc(CN2CCC(N3CCCCC3)CC2)c(CNC(=O)c2cc(Br)cc3c2cnn3C2CCCC2)c(=O)[nH]1 [Compound D-79] | 1000 to 3000
CNCC(=O)N1CC=C(c2cc(C(=O)NCc3c(C)cc(C)[nH]c3=O)c3cnn(C(C)C)c3n2)CC1 [Compound B-39] | 300 to 1000
Cc1cc(C)c(CNC(=O)c2cc(-c3ccc(COCCCN4CCOCC4)cc3)cc3c2cnn3C2CCCC2)c(=O)[nH]1 [Compound C-18] | < 300
Cc1cc(C)c(CNC(=O)c2cc(-c3ccc(C)c(S(N)(=O)=O)c3)cc3c2cnn3C2CCCC2)c(=O)[nH]1 [Compound C-16] | < 300
Cc1cc(C)c(CNC(=O)c2cc(C3=CCCCC3)nc3c2cnn3C(C)C)c(=O)[nH]1 [Compound B-81] | 300 to 1000
Cc1[nH]c(=O)c(CNC(=O)c2cc(C3CC(C)(C)NC(C)(C)C3)nc3c2cnn3C(C)C)c(C)c1Cc1ccccc1 [Compound B-145] | 10000 to 50000

Compound | IC50 [nM]
Cc1cc(C)c(CNC(=O)c2cc(-c3ccc(COCCN4CCOCC4)cc3)cc3c2cnn3C2CCCC2)c(=O)[nH]1 [Compound C-20] | < 300
Cc1cc(C)c(CNC(=O)c2cc(N)nc3c2cnn3C(C)C)c(=O)[nH]1 [Compound B-125] | 3000 to 10000
CCC(=O)N1CCC(n2ncc3c(C(=O)NCc4c(C)cc(C)[nH]c4=O)cc(Br)cc32)CC1 [Compound D-55] | 300 to 1000
Cc1cc(C)c(CNC(=O)c2cc(-c3ccc(CN(C)C)cc3)cc3c2cnn3C2CCCC2)c(=O)[nH]1 [Compound C-3, 1-cyclopentyl-N-((4,6-dimethyl-2-oxo-1,2-dihydropyridin-3-yl)methyl)-6-(4-((dimethylamino)methyl)phenyl)-1H-indazole-4-carboxamide] | < 300
Cc1cc(C)c(CNC(=O)c2cc(N3CCCCC3)nc3c2cnn3C(C)C)c(=O)[nH]1 [Compound B-115] | 1000 to 3000
Cc1cc(C)c(CNC(=O)c2cc(-c3cccc(CN(C)CCO)c3)cc3c2cnn3C2CCCC2)c(=O)[nH]1 [Compound C-29] | < 300
Cc1cc(C)c(CNC(=O)c2cc(CN3CCC[C@@H]3C(N)=O)cc3c2cnn3C2CCCC2)c(=O)[nH]1 [Compound D-93] | 300 to 1000
CCc1nn(C(C)C)c2nc(C3=CC(C)(C)NC(C)(C)C3)cc(C(=O)NCc3c(C)cc(C)[nH]c3=O)c12 [Compound B-26, N-((4,6-dimethyl-2-oxo-1,2-dihydropyridin-3-yl)methyl)-3-ethyl-1-isopropyl-6-(2,2,6,6-tetramethyl-1,2,3,6-tetrahydropyridin-4-yl)-1H-pyrazolo[3,4-b]pyridine-4-carboxamide] | 300 to 1000
Cc1cc(C)c(CNC(=O)c2cc(C3=CCN(C(=O)C(O)CN)CC3)nc3c2cnn3C(C)C)c(=O)[nH]1 (centres unmarked) [Compound B-70] | 300 to 1000
Cc1cc(C)c(CNC(=O)c2cc(C3=CC(C)(C)NC(C)(C)C3)nc3c2cnn3CCC#N)c(=O)[nH]1 [Compound B-144] | 3000 to 10000
Cc1cc(C)c(CNC(=O)c2cc(-c3cccc(CN4CCOCC4)c3)nc3c2cnn3C(C)C)c(=O)[nH]1 [Compound A-54] | 1000 to 3000
Cc1ccc(CNC(=O)c2cc(-c3cccc(CN(C)CCN(C)C)c3)nc3c2cnn3C(C)C)c(=O)[nH]1 [Compound A-99] | 10000 to 50000
Cc1cc[nH]c(=O)c1CNC(=O)c1cc(-c2cccc(CN(C)CCN(C)C)c2)nc2c1cnn2C(C)C [Compound A-70] | 3000 to 10000
Cc1cc(C)c(CNC(=O)c2cc(-c3ccc(CN4CCOCC4)c(Cl)c3)cc3c2cnn3C2CCCC2)c(=O)[nH]1 [Compound C-28] | < 300
Cc1cc(C)c(CNC(=O)c2cc(C3CCN(CCO)CC3)cc3c2cnn3C2CCCC2)c(=O)[nH]1 [Compound D-97] | < 300
Cc1cc(C)c(CNC(=O)c2cc(-c3ccc(CN4CCOCC4)cc3)nc3c2c(Br)nn3C(C)C)c(=O)[nH]1 [Compound A-17, 3-bromo-N-((4,6-dimethyl-2-oxo-1,2-dihydropyridin-3-yl)methyl)-1-isopropyl-6-(4-(morpholinomethyl)phenyl)-1H-pyrazolo[3,4-b]pyridine-4-carboxamide] | < 300
Cc1cc(C)c(CNC(=O)c2cc(-c3ccccc3CNC(=O)OC(C)(C)C)nc3c2cnn3C(C)C)c(=O)[nH]1 [Compound A-98] | 10000 to 50000
Cc1cc(C)c(CNC(=O)c2cc(C3=CC(C)(C)NC(C)(C)C3)nc3c2cnn3CCO)c(=O)[nH]1 [Compound B-146] | 10000 to 50000
Cc1cc(CN2CCOCC2)c(CNC(=O)c2cccc3c2cnn3C2CCCC2)c(=O)[nH]1 [Compound D-84] | 3000 to 10000
Cc1cc(C)c(CNC(=O)c2cc(-c3ccc(CN4CCOCC4)cc3)cc3c2cnn3C(C)C)c(=O)[nH]1 [Compound C-5, N-((4,6-dimethyl-2-oxo-1,2-dihydropyridin-3-yl)methyl)-1-isopropyl-6-(4-(morpholinomethyl)phenyl)-1H-indazole-4-carboxamide] | < 300
Cc1cc(C)c(CNC(=O)c2cc(Br)cc3c2cnn3C2CCN(C(=O)C3CCOCC3)CC2)c(=O)[nH]1 [Compound D-28] | 300 to 1000
Cc1cc(C)c(CNC(=O)c2cc(CN3CCNC(=O)C3)cc3c2cnn3C2CCCC2)c(=O)[nH]1 [Compound D-94] | 300 to 1000
Cc1cc(C)c(CNC(=O)c2cc(C(=O)N(C)CCN(C)C)nc3c2cnn3C(C)C)c(=O)[nH]1 [Compound B-133] | 3000 to 10000
Cc1cc(C)c(CNC(=O)c2cc(Cl)cc3c2cnn3C2CCCC2)c(=O)[nH]1 [Compound D-10, 6-chloro-1-cyclopentyl-N-((4,6-dimethyl-2-oxo-1,2-dihydropyridin-3-yl)methyl)-1H-indazole-4-carboxamide] | < 300
Cc1cc(C)c(CNC(=O)c2cc(C3=CCN(CCC(F)(F)F)CC3)nc3c2cnn3C(C)C)c(=O)[nH]1 [Compound B-84] | 300 to 1000
